Results published in patent USRE39113E1 (priority 1998, dated 2006).

Tests used:
[1] = test system: hot-plate assay in mouses; experiment: hot-plate assay in mice; assay type: in vivo, Swiss albino mice; conditions: ip, hot plate 55° C., licking of the paws
Procedure: The analgesic activity of the products object of the invention have been studied in several assays using the Swiss albino mice as the experimental animal. The assay of contortions induced by phenylbenzoquinone, the hot-plate assay and the hot-point assay are now described. The examples that are presented by way of illustration describe some of the pharmacological assays and should not limit the scope of the invention in any way.
The hot-plate assay was carried out following the method described by M. Ocana et al. (Europ J. Pharmacol. 186: 377-378, 1990). The product under study was administered s.c. or i.p. and 30 minutes later the analgesic effect was registered. For this the animals were placed on a metallic surface kept at 50° C. or 55° C. and the time registered (latency) until the licked their hind legs and a jump. The analgesic activity was calculated at each dose, comparing the potency of the treated group with the control group. Using the results obtained the ED-50 was calculated.

mouse's tail = experiment: animal or person; assay type: in vivo, Swiss albino mice; conditions: sc

## Clc1ccc(C2=CCN(CCCCn3cc(Cl)cn3)CC2)cc1 [Example 47a]
[1]; 40 mg/kg
  Δ Latency: 5 s

## C1=C(c2ccccc2)CCN(CCCCn2cccc2)C1 [Example 51a]
mouse's tail
  ED50: 5 mg/kg

## Brc1ccc(C2=CCN(CCCCn3cncn3)CC2)cc1 [Example 59a]
mouse's tail
  ED50: 60 mg/kg

## Clc1ccc(C2=CCN(CCCCn3ccnc3-c3ccccc3)CC2)cc1 [Example 63a]
mouse's tail
  ED50: 70 mg/kg

## CC(C)=CCN1CCC2(C)c3cc(O)ccc3CC1C2C (centres unmarked) [Pentazocine, reference compound]
[1]; 10 mg/kg
  Δ Latency: 6 s
